The record followed here is the Kinase Knowledgebase extract (Sharma et al. 2016).

Some results are limits rather than exact numbers.

This test concerns the target MAPK14 (UniProt Q16539). Nature of the test: Inhibition of MAPK14 Kinase Activity.

Chain of MAPK14 (Q16539 whole entry, looked up): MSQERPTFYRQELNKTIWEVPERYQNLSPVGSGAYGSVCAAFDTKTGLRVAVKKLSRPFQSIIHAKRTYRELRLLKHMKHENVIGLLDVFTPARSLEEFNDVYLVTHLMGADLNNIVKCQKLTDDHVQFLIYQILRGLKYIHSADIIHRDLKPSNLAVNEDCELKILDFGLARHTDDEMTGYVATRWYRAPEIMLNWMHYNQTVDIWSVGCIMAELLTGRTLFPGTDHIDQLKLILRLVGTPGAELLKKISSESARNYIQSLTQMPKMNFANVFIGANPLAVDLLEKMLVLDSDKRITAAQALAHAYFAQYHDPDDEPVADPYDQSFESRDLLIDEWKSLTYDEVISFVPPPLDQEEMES

What is called IC50 is the midpoint of a concentration-inhibition curve. A high value points to weaker potency in that assay. `CC(C)S(=O)(=O)n1c(N)nc2ccc(-c3[nH]n(-c4ccc(C(F)(F)F)cc4)c(=O)c3-c3ccccc3)cc21` registered a half-maximal inhibitory concentration (IC50) of at most 5 µM. As for `CC(C)S(=O)(=O)n1c(N)nc2ccc(-c3nc[nH]c3-c3cccc(C(F)(F)F)c3)cc21`, the figure is at most 5 µM; as for `CC(C)S(=O)(=O)n1c(N)nc2ccc(-c3nc(-c4c(F)cccc4F)[nH]c3-c3ccc(F)cc3)cc21`, at most 5 µM.

`CC(C)S(=O)(=O)n1c(N)nc2ccc(-c3nc(-c4cccs4)[nH]c3-c3ccccc3)cc21` came in with a 50% inhibitory concentration (IC50) of at most 5 µM. As for `CC(C)S(=O)(=O)n1c(N)nc2ccc(-c3c(-c4ccccc4)ncn3Cc3ccc(F)cc3F)cc21`, the figure is at most 5 µM. As for `CC(C)S(=O)(=O)n1c(N)nc2ccc(-c3c(-c4ccccc4)ncn3[C@@H](C)CO)cc21`, the figure is at most 5 µM; as for `CC(C)S(=O)(=O)n1c(N)nc2ccc(-c3nc(-c4ccccc4F)[nH]c3-c3ccccc3)cc21`, at most 5 µM. Then `CC(C)S(=O)(=O)n1c(N)nc2ccc(-c3c(-c4cccc(F)c4)ncn3[C@H]3CC[C@H](O)CC3)cc21`, with at most 5 µM. As to `CC(C)S(=O)(=O)n1c(N)nc2ccc(-c3c(-c4ccccc4)ncn3C3CCC4(CC3)OCCO4)cc21`, the IC50 is at most 5 µM. Then `Clc1nc2ccc(-c3c(-c4ccccc4)ncn3C3CCCCC3)cc2s1`, with at most 5 µM; and `CC(C)S(=O)(=O)n1c(N)nc2ccc(-c3c(-c4ccccc4)ncn3[C@@H](CO)c3ccccc3)cc21`, with at most 5 µM; and `Cc1nc(-c2ccc3nc(N)n(S(=O)(=O)C(C)C)c3c2)c(-c2ccc(F)cc2)[nH]1`, with at most 5 µM. As to `Cc1cccc(-c2[nH]c(C)nc2-c2ccc3nc(N)n(S(=O)(=O)C(C)C)c3c2)c1`, the concentration for half-maximal inhibition (IC50) is at most 5 µM. As for `CC(C)S(=O)(=O)n1c(N)nc2ccc(-c3c(-c4ccc(F)cc4)ncn3C3CCN(C)CC3)cc21`, the figure is at most 5 µM; as for `CC1=CC2=NC(c3ccccc3)C(c3ccc4nc(N)n(S(=O)(=O)C(C)C)c4c3)N2C=C1` (stereo not drawn), at most 5 µM. `CC(C)S(=O)(=O)n1c(N)nc2ccc(-c3nc(-c4cccc(Cl)c4)[nH]c3-c3ccccc3)cc21` returned an IC50 of at most 5 µM. As for `CC(C)S(=O)(=O)n1c(N)nc2ccc(-c3c(-c4ccccc4)ncn3CCCc3ccccc3)cc21`, the figure is at most 5 µM. Then `CC(C)S(=O)(=O)n1c(N)nc2ccc(-c3c(-c4ccccc4)ncn3CCN3CCOCC3)cc21`, with at most 5 µM; and `CC(C)S(=O)(=O)n1c(N)nc2ccc(-c3c(-c4ccccc4)ncn3-c3ccc(N)cc3)cc21`, with at most 5 µM; and `CC(C)S(=O)(=O)n1c(N)nc2ccc(-c3nc(C(F)(F)F)[nH]c3-c3ccccc3)cc21`, with at most 5 µM.

`Nc1nc2ccc(-c3nc[nH]c3-c3ccccc3)cc2s1` yielded an IC50 of at most 5 µM. Then `CCc1nc(-c2ccc3nc(N)n(S(=O)(=O)C(C)C)c3c2)c(-c2ccc(F)cc2)[nH]1`, with at most 5 µM; and `CC(C)S(=O)(=O)n1c(N)nc2ccc(-c3nc(-c4ccc(Cl)s4)[nH]c3-c3ccc(F)cc3)cc21`, with at most 5 µM; and `CC(C)S(=O)(=O)n1c(N)nc2ccc(-c3nc[nH]c3-c3ccccc3F)cc21`, with at most 5 µM. Then `CC(C)S(=O)(=O)n1c(N)nc2ccc(-c3nc(COCc4ccccc4)[nH]c3-c3ccccc3)cc21`, with at most 5 µM.

As to `CC(C)S(=O)(=O)n1c(N)nc2ccc(-c3nc(CN(C)CCN(C)C)[nH]c3-c3ccccc3)cc21`, the IC50 is at most 5 µM. As for `CC(C)S(=O)(=O)n1c(N)nc2ccc(-c3c(C#N)cnn3-c3ccccc3)cc21`, the figure is at most 5 µM; as for `CC(C)S(=O)(=O)n1c(N)nc2ccc(-c3c(-c4ccccc4)nc4n3CCCC4)cc21`, at most 5 µM. As for `CC(C)S(=O)(=O)n1c(N)nc2ccc(-c3c(-c4ccccc4)ncn3[C@H](C)CO)cc21`, the figure is at most 5 µM. Then `Cc1ccc(-c2nc(-c3ccc4nc(N)n(S(=O)(=O)C(C)C)c4c3)c(-c3ccccc3)[nH]2)cc1`, with at most 5 µM; and `CC(C)S(=O)(=O)n1c(N)nc2ccc(-c3c(-c4cccc(F)c4F)ncn3[C@H]3CC[C@H](O)CC3)cc21`, with at most 5 µM; and `CCOC(=O)/C=C/c1nc(-c2ccc3nc(N)n(S(=O)(=O)C(C)C)c3c2)c(-c2ccccc2)[nH]1`, with at most 5 µM. The compound `CC(C)S(=O)(=O)n1c(N)nc2ccc(-c3nc(-c4ccc(C(F)(F)F)cc4)[nH]c3-c3ccccc3)cc21` had an IC50 of at most 5 µM. Then `CC(C)S(=O)(=O)n1c(N)nc2ccc(-c3c(-c4ccccc4)ncn3C3CCOCC3)cc21`, with at most 5 µM; and `CC(C)S(=O)(=O)n1c(N)nc2ccc(-c3nc(C4CCN(C(=O)OCc5ccccc5)CC4)[nH]c3-c3ccccc3)cc21`, with at most 5 µM; and `CC(C)S(=O)(=O)n1c(N)nc2ccc(-c3nc(-c4cccs4)[nH]c3-c3ccc(C(F)(F)F)cc3)cc21`, with at most 5 µM. `CC(C)S(=O)(=O)n1c(N)nc2ccc(-c3nc(C4CCN(C(=O)OC(C)(C)C)CC4)[nH]c3-c3ccccc3)cc21` gave an IC50 of at most 5 µM. Then `CC(C)S(=O)(=O)n1c(N)nc2ccc(-c3c(-c4ccccc4F)nc(-c4c[nH]nn4)n3C3CC3)cc21`, with at most 5 µM; and `CC(C)S(=O)(=O)n1c(N)nc2ccc(-c3nc(-c4c(F)cccc4Cl)[nH]c3-c3ccc(F)cc3)cc21`, with at most 5 µM; and `CCc1nc(-c2ccccc2F)c(-c2ccc3nc(N)n(S(=O)(=O)C(C)C)c3c2)n1C1CC1`, with at most 5 µM.

In the case of `CC(C)S(=O)(=O)n1c(N)nc2ccc(-c3nc(C4CCN(Cc5ccccc5)CC4)[nH]c3-c3ccccc3)cc21`, the IC50 is at most 5 µM. Then `CC(C)S(=O)(=O)n1c(N)nc2ccc(-c3nc(-c4ccccc4N4CCN(C)CC4)[nH]c3-c3ccccc3)cc21`, with at most 5 µM; and `CC(C)S(=O)(=O)n1c(N)nc2ccc(-c3c(-c4ccsc4)ncn3[C@H]3CC[C@H](O)CC3)cc21`, with at most 5 µM.
